Reference: ChEMBL document CHEMBL4819014, “Design, synthesis and biological evaluation of imidazole and triazole-based carbamates as novel aromatase inhibitors” (Eur J Med Chem, 2021)
Blank lines part the entries; values can stand above or below the compound they belong to. Activity calls are given as the source filed them. The rule behind the calls is not given here.

Key:
CYP19A (aromatase) = target: T1, CYP19A (aromatase) (Homo sapiens, UniProt P11511); test: Inhibition of human CYP19A at 1 uM measured every 1 min for 60 mins by flourimetric assay
T1 sequence (P11511 whole entry): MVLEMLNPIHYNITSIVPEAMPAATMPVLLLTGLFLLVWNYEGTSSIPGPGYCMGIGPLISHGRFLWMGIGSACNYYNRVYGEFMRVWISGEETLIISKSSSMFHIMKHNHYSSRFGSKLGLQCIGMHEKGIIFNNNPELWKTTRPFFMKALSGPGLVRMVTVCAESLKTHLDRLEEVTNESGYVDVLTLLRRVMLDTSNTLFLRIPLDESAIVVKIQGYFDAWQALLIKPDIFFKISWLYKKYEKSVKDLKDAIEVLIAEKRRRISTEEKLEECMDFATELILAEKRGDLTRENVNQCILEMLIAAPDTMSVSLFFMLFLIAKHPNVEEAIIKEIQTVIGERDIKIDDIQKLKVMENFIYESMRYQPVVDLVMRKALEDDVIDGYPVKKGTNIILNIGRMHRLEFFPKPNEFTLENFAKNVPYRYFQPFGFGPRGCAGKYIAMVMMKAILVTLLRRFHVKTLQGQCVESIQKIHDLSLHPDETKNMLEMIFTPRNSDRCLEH

MCF7 [1] = test: Cytotoxicity against human MCF7 cells assessed as metabolic activity at 250 uM measured after 48 hrs by MTT assay; type: functional
Aromatase = target: T2, Aromatase (Homo sapiens, UniProt P11511); test: Inhibition of human CYP19A measured every 1 min for 60 mins by flourimetric assay
T2 sequence (P11511 whole entry): T1 sequence (P11511 whole entry)

MCF7 [2] = test: Cytotoxicity against human MCF7 cells assessed as metabolic activity at 10 uM measured after 72 hrs by MTT assay; type: functional
MCF7 [3] = test: Induction of cell cycle arrest in human MCF7 cells assessed as accumulation of cells in S phase measured after 24 hrs by PI staining based flow cytometry method; type: functional; conditions: dose 10-250 µM
MCF7 [4] = test: Cytotoxicity against human MCF7 cells assessed as metabolic activity at 50 uM measured after 72 hrs by MTT assay; type: functional
MCF7 [5] = test: Cytotoxicity against human MCF7 cells assessed as metabolic activity at 10 uM measured after 24 hrs by MTT assay; type: functional
MCF7 [6] = test: Cytotoxicity against human MCF7 cells assessed as lactate dehydrogenase activity measured after 24 hrs by microplate reader method relative to control; type: functional
MCF7 [7] = test: Cytotoxicity against human MCF7 cells assessed as lactate dehydrogenase activity at 250 uM measured after 24 hrs by microplate reader method relative to control; type: functional
MCF7 [8] = test: Cytotoxicity against human MCF7 cells assessed as metabolic activity at 25 uM measured after 72 hrs by MTT assay; type: functional
MCF7 [9] = test: Cytotoxicity against human MCF7 cells assessed as metabolic activity at 100 uM measured after 48 hrs by MTT assay; type: functional
MCF7 [10] = test: Induction of cell cycle arrest in human MCF7 cells assessed as decrease in accumulation of cells in G1 phase at 100 to 250 uM measured after 24 hrs by PI staining based flow cytometry method; type: functional; conditions: dose 100-250 µM
MCF7 [11] = test: Cytotoxicity against human MCF7 cells assessed as metabolic activity at 10 to 250 uM measured after 24 hrs by MTT assay; type: functional; conditions: dose 10-250 µM
MCF7 [12] = test: Cytotoxicity against human MCF7 cells assessed as metabolic activity measured after 48 hrs by MTT assay; type: functional, cell-based; conditions: dose 10-250 µM
MCF7 [13] = test: Induction of cell cycle arrest in human MCF7 cells assessed as accumulation of cells in G2/M phase at 100 to 250 uM measured after 24 hrs by PI staining based flow cytometry method; type: functional; conditions: dose 100-250 µM

SMILES: O=C(Nc1ccc(Cl)cc1)OC(Cn1ccnc1)c1ccccc1 (stereo not drawn)
inhibition at 1 h, 1 µM (CYP19A (aromatase)): 62%

SMILES: O=C(Nc1ccccc1)OC(COc1ccc(Cl)cc1)Cn1cncn1 (stereo not drawn)
inhibition at 1 h, 1 µM (CYP19A (aromatase)): 46%

SMILES: COc1ccc(OCC(Cn2cncn2)OC(=O)Nc2ccc(Cl)cc2)cc1 (stereo not drawn)
inhibition at 1 h, 1 µM (CYP19A (aromatase)): 49%

SMILES: O=C(NCc1ccccc1)OC(Cn1ccnc1)c1ccccc1 (stereo not drawn)
Activity (MCF7 [1]): 30.75%
IC50 (Aromatase): 820 nM
Activity (MCF7 [2]): 50.16%
Activity (MCF7 [3]): Dose-Dependent Effect
Activity (MCF7 [4]): 46.7%
Activity (MCF7 [5]): 43.67%
fold change (FC) (MCF7 [6]): 4
fold change (FC) (MCF7 [7]): 4.8
Activity (MCF7 [8]): 55.06%
inhibition at 1 h, 1 µM (CYP19A (aromatase)): 81%
Activity (MCF7 [9]): 10.39%

More lines, main results first:

inhibition at 1 h, 1 µM (CYP19A (aromatase)): 27%
SMILES: O=C(Nc1ccccc1)OC(COc1ccccc1)Cn1ccnc1 (stereo not drawn)

IC50 (Aromatase): 860 nM
inhibition at 1 h, 1 µM (CYP19A (aromatase)): 72%
SMILES: O=C(Nc1ccc(Cl)cc1)OC(COc1ccccc1)Cn1ccnc1 (stereo not drawn)
Activity (MCF7 [10]): Active
Activity (MCF7 [3]): Dose-Dependent Effect
Activity (MCF7 [4]): 25.18%
fold change (FC) (MCF7 [6]): 4
fold change (FC) (MCF7 [7]): 4.8
Activity (MCF7 [11]): 50%
Activity (MCF7 [12]): Dose-Dependent Effect
Activity (MCF7 [13]): Active

inhibition at 1 h, 1 µM (CYP19A (aromatase)): 61%
SMILES: O=C(Nc1ccccc1)OC(Cn1ccnc1)c1ccccc1 (stereo not drawn)

inhibition at 1 h, 1 µM (CYP19A (aromatase)): 61%
SMILES: COc1ccc(NC(=O)OC(COc2ccccc2)Cn2ccnc2)cc1 (stereo not drawn)

inhibition at 1 h, 1 µM (CYP19A (aromatase)): 25%
SMILES: COc1ccc(NC(=O)OC(COc2ccccc2)Cn2ccnc2)c(OC)c1 (stereo not drawn)
